According to patent publication US20260166130A1, “PEPTIDE COMPOSITION HAVING ANGIOGENIC ACTIVITY, AND PHARMACEUTICAL COMPOSITION USING SAME AND COSMETIC COMPOSITION USING SAME” (LABTOMEDI CRO CO.,LTD., priority 2022, published 2026):
No end group written: not given here.

Experiments:
HUVECs [1] = experiment: Blood vessel (tube) formation assay on Matrigel; type: cell-based, human; settings: 4 hours, vs. control
Description: HUVECs (20,000 cells/well) were seed on a layer of previously polymerized Matrigel and treated with or without the first peptide and the second peptide. The Matrigel culture was incubated at 37° C. After 4 hours, changes in cell morphology were captured using a phase-contrast microscope (×40). Each sample was assayed in duplicate, and independent experiments were repeated three times. *P<0.05, **P,0.01, ***P<0.001 (vs. control).
HUVECs (20,000 cells/well) were seeded on a layer of previously polymerized Matrigel, treated with the visfatin-derived peptides, and then incubated in a 5% CO2 incubator at 37° C. for 4 hours. Then, changes in the cell morphology were observed and photographed using a phase-contrast microscope at 40× magnification. Each sample was assayed in duplicate, and independent experiments were repeated three times. Angiogenesis was analyzed with ImageJ software using an angiogenesis analyzer (Bethesda, MD, USA).

HUVECs [2] = experiment: MTT cytotoxicity assay; type: cell-based, human; settings: 0.1 μM, 0.5 μM, 1.0 μM and 2.0 μM, incubated overnight
Description: HUVECS (PromoCell, Heidelberg, Germany) were cultured in endothelial basal medium 2 (EBM) supplemented with Supplement Mix (PromoCell) containing 2% fetal bovine serum (FBS). The Supplement Mix consisted of 5 ng/mL epidermal growth factor (EGF), 10 ng/ml basic fibroblast growth factor (bFGF), 20 ng/mL insulin-like growth factor (IGF), 0.5 ng/mL VEGF, 1 ug/mL ascorbic acid, 22.5 ug/mL heparin, and 0.2 ug/mL hydrocortisone. In some experiments, cells were cultured in EBM medium supplemented with Supplement Mix, and cells between passages 2 and 7 were used in all experiments. Cells were cultured for 24 hours in a 5% CO2 incubator at a 37° C.
HUVECs were seeded at a density of 10,000 cells in 96-well plates (SPL, Korea) and incubated overnight with EBM-2 medium containing visfatin (1,000 ng/ml) and each of the peptides with the highest affinity, obtained from docking simulation, in a 5% CO2 incubator at 37° C. MIT reagent (Sigma-Aldrich) was added to each well to a final concentration of 0.5 mg/ml. After 4 hours, the medium was removed, the formazan crystals formed in the cells were dissolved in dimethyl sulfoxide (DMSO), and the absorbance of the formazan solution was measured at a wavelength of 540 nm using a Synergy HTX Multi-Mode Reader (BIO-TEK, Vermont, USA). Each sample was assayed in triplicate. […]

| Substance | number of master junctions (tube formation) (HUVECs [1]; second peptide except at the 2.0 μM concentration) | number of meshes (tube formation) (HUVECs [1]; positive controls) | cell viability of HUVECs (cytotoxicity) (HUVECs [2]) |
| --- | --- | --- | --- |
| basic fibroblast growth factor [bFGF] | significantly increased | not significantly changed | – |
| LEYKLHDFGY [Peptide 1, LEYKLHDFGY] | – | – | did not affect the viability of the cells |
| EYKLHDFGYRGV [Peptide 2, EYKLHDFGYRGV] | – | – | did not affect the viability of the cells |
